Measured values as given in patent publication US12077503B2, “Substituted cyclic amides and their use as herbicides” (FMC CORPORATION, priority 2015, dated 2024).

Tests used:
Format in all cases: in vivo
[1] = system: barnyardgrass (Echinochloa crus-galli); assay: Test G Pre-Emergence Protocol; conditions: Echinochloa crus-galli, pre-emergence, 312 h, evaluated after 13 days; for pest or weed control at 15.625 g/ha: 15.625 g ai/ha, read-out: Barnyard grass damage rating (100=total damage to plant; 0=no damage to plant); for pest or weed control at 62.5 g/ha: 62.5 g ai/ha, 100=total damage to plant, 0=no damage to plant, read-out: plant damage rating, Barnyardgrass; for pest or weed control at 250 g/ha: 250 g ai/ha, read-out: Barnyardgrass damage rating (100=total damage to plant; 0=no damage to plant)
Outline: (§1)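 Scores are visual damage ratings from 0 (no damage) to 100 (total plant kill), taken 13 days after treatment. Compound was sprayed one day post-sowing at 15.625, 62.5 or 250 g/ha in 50:50 acetone/water with 0.5% Tween 20.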

[2] = system: corn (Zea mays); assay: Test G Pre-Emergence Protocol; conditions: Zea mays, pre-emergence, 312 h, evaluated after 13 days; for plant injury at 15.625 g/ha: 15.625 g ai/ha; for plant injury at 15.625 g/ha / plant injury at 250 g/ha: read-out: Corn damage rating (100=total damage to plant; 0=no damage to plant); for plant injury at 62.5 g/ha: 62.5 g ai/ha, 100=total damage to plant, 0=no damage to plant, read-out: plant damage rating, Corn; for plant injury at 250 g/ha: 250 g ai/ha
Outline: as §1

[3] = system: giant foxtail (Setaria faberi); assay: Test G Pre-Emergence Protocol; conditions: Setaria faberi, pre-emergence, 312 h, evaluated after 13 days; for pest or weed control at 15.625 g/ha: 15.625 g ai/ha; for pest or weed control at 15.625 g/ha / pest or weed control at 250 g/ha: read-out: Foxtail, Giant damage rating (100=total damage to plant; 0=no damage to plant); for pest or weed control at 62.5 g/ha: 62.5 g ai/ha, 100=total damage to plant, 0=no damage to plant, read-out: plant damage rating, Foxtail, Giant; for pest or weed control at 250 g/ha: 250 g ai/ha
Outline: as §1

[4] = system: ivy-leaved morning glory (Ipomoea hederacea); assay: Test G Pre-Emergence Protocol; conditions: Ipomoea, pre-emergence, 312 h, evaluated after 13 days; for pest or weed control at 15.625 g/ha: 15.625 g ai/ha, read-out: Morning-glory, Ivy-leaved damage rating (100=total damage to plant; 0=no damage to plant); for pest or weed control at 62.5 g/ha: 62.5 g ai/ha, 100=total damage to plant, 0=no damage to plant, read-out: plant damage rating, Morningglory, Ivy-leaved; for pest or weed control at 250 g/ha: 250 g ai/ha, read-out: Morningglory, Ivy-leaved damage rating (100=total damage to plant; 0=no damage to plant)
Outline: as §1

[5] = system: redroot pigweed (Amaranthus retroflexus); assay: Test G Pre-Emergence Protocol; conditions: Amaranthus retroflexus, pre-emergence, 312 h, evaluated after 13 days; for pest or weed control at 15.625 g/ha: 15.625 g ai/ha; for pest or weed control at 15.625 g/ha / pest or weed control at 250 g/ha: read-out: Pigweed, Redroot damage rating (100=total damage to plant; 0=no damage to plant); for pest or weed control at 62.5 g/ha: 62.5 g ai/ha, 100=total damage to plant, 0=no damage to plant, read-out: plant damage rating, Pigweed, Redroot; for pest or weed control at 250 g/ha: 250 g ai/ha
Outline: as §1

[6] = system: velvetleaf (Abutilon theophrasti); assay: Test G Pre-Emergence Protocol; conditions: Abutilon theophrasti, pre-emergence, 312 h, evaluated after 13 days; for pest or weed control at 15.625 g/ha: 15.625 g ai/ha; for pest or weed control at 15.625 g/ha / pest or weed control at 250 g/ha: read-out: Velvetleaf damage rating (100=total damage to plant; 0=no damage to plant); for pest or weed control at 62.5 g/ha: 62.5 g ai/ha, 100=total damage to plant, 0=no damage to plant, read-out: plant damage rating, Velvetleaf; for pest or weed control at 250 g/ha: 250 g ai/ha
Outline: as §1

[7] = system: barnyardgrass (Echinochloa crus-galli); assay: Test G Post-Emergence Protocol; conditions: Echinochloa crus-galli, post-emergence, 312 h; for pest or weed control at 15.625 g/ha: 15.625 g ai/ha, evaluated after 13 days (100=total damage to plant; 0=no damage to plant), read-out: Barnyardgrass damage rating; for pest or weed control at 62.5 g/ha: 62.5 g ai/ha, read-out: Barnyardgrass damage rating (100=total damage to plant; 0=no damage to plant); for pest or weed control at 62.5 g/ha / pest or weed control at 250 g/ha: evaluated after 13 days; for pest or weed control at 250 g/ha: 250 g ai/ha, read-out: damage to plant, Barnyardgrass (100=total damage to plant; 0=no damage to plant)
Outline: (§2)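 Foliar application was made 8 days after sowing, using an aqueous spray of the active in acetone/water (50:50) with 0.5% Tween 20, at doses of 15.625, 62.5 or 250 g/ha. Injury was assessed 13 days later, where 100 meant the plant was fully damaged.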

[8] = system: corn (Zea mays); assay: Test G Post-Emergence Protocol; conditions: Zea mays, post-emergence, 312 h; for plant injury at 15.625 g/ha: 15.625 g ai/ha, evaluated after 13 days (100=total damage to plant; 0=no damage to plant), read-out: Corn damage rating; for plant injury at 62.5 g/ha: 62.5 g ai/ha, read-out: Corn damage rating (100=total damage to plant; 0=no damage to plant); for plant injury at 62.5 g/ha / plant injury at 250 g/ha: evaluated after 13 days; for plant injury at 250 g/ha: 250 g ai/ha, read-out: damage to plant, Corn (100=total damage to plant; 0=no damage to plant)
Outline: as §2

[9] = system: giant foxtail (Setaria faberi); assay: Test G Post-Emergence Protocol; conditions: Setaria faberi, post-emergence, 312 h; for pest or weed control at 15.625 g/ha: 15.625 g ai/ha, evaluated after 13 days (100=total damage to plant; 0=no damage to plant), read-out: Foxtail, Giant damage rating; for pest or weed control at 62.5 g/ha: 62.5 g ai/ha, read-out: Foxtail, Giant damage rating (100=total damage to plant; 0=no damage to plant); for pest or weed control at 62.5 g/ha / pest or weed control at 250 g/ha: evaluated after 13 days; for pest or weed control at 250 g/ha: 250 g ai/ha, read-out: damage to plant, Foxtail, Giant (100=total damage to plant; 0=no damage to plant)
Outline: as §2

[10] = system: ivy-leaved morning glory (Ipomoea hederacea); assay: Test G Post-Emergence Protocol; conditions: Ipomoea, post-emergence, 312 h; for pest or weed control at 15.625 g/ha: 15.625 g ai/ha, evaluated after 13 days (100=total damage to plant; 0=no damage to plant), read-out: Morningglory, Ivy-leaved damage rating; for pest or weed control at 62.5 g/ha: 62.5 g ai/ha, read-out: Morningglory, Ivy-leaved damage rating (100=total damage to plant; 0=no damage to plant); for pest or weed control at 62.5 g/ha / pest or weed control at 250 g/ha: evaluated after 13 days; for pest or weed control at 250 g/ha: 250 g ai/ha, read-out: damage to plant, Morningglory, Ivy-leaved (100=total damage to plant; 0=no damage to plant)
Outline: as §2

[11] = system: redroot pigweed (Amaranthus retroflexus); assay: Test G Post-Emergence Protocol; conditions: Amaranthus retroflexus, post-emergence, 312 h; for pest or weed control at 15.625 g/ha: 15.625 g ai/ha, evaluated after 13 days (100=total damage to plant; 0=no damage to plant), read-out: Pigweed, Redroot damage rating; for pest or weed control at 62.5 g/ha: 62.5 g ai/ha, read-out: Pigweed, Redroot damage rating (100=total damage to plant; 0=no damage to plant); for pest or weed control at 62.5 g/ha / pest or weed control at 250 g/ha: evaluated after 13 days; for pest or weed control at 250 g/ha: 250 g ai/ha, read-out: damage to plant, Pigweed, Redroot (100=total damage to plant; 0=no damage to plant)
Outline: as §2

[12] = system: velvetleaf (Abutilon theophrasti); assay: Test G Post-Emergence Protocol; conditions: Abutilon theophrasti, post-emergence, 312 h; for pest or weed control at 15.625 g/ha: 15.625 g ai/ha, evaluated after 13 days (100=total damage to plant; 0=no damage to plant), read-out: Velvetleaf damage rating; for pest or weed control at 62.5 g/ha: 62.5 g ai/ha, read-out: Velvetleaf damage rating (100=total damage to plant; 0=no damage to plant); for pest or weed control at 62.5 g/ha / pest or weed control at 250 g/ha: evaluated after 13 days; for pest or weed control at 250 g/ha: 250 g ai/ha, read-out: damage to plant, Velvetleaf (100=total damage to plant; 0=no damage to plant)
Outline: as §2

| Structure (SMILES) | pest or weed control at 15.625 g/ha [1] | pest or weed control at 62.5 g/ha [1] | pest or weed control at 250 g/ha [1] | plant injury at 15.625 g/ha [2] | plant injury at 62.5 g/ha [2] | plant injury at 250 g/ha [2] | pest or weed control at 15.625 g/ha [3] | pest or weed control at 62.5 g/ha [3] | pest or weed control at 250 g/ha [3] | pest or weed control at 15.625 g/ha [4] | pest or weed control at 62.5 g/ha [4] | pest or weed control at 250 g/ha [4] | pest or weed control at 15.625 g/ha [5] | pest or weed control at 62.5 g/ha [5] | pest or weed control at 250 g/ha [5] | pest or weed control at 15.625 g/ha [6] | pest or weed control at 62.5 g/ha [6] | pest or weed control at 250 g/ha [6] | pest or weed control at 15.625 g/ha [7] | pest or weed control at 62.5 g/ha [7] | also measured |
| --- | --- | --- | --- | --- | --- | --- | --- | --- | --- | --- | --- | --- | --- | --- | --- | --- | --- | --- | --- | --- | --- |
| Cc1nc(C(F)(F)F)ccc1NC(=O)[C@@H]1C(=O)N(C)C[C@H]1c1ccc(C(F)(F)F)cc1 (racemic) [Compound 1566] | 0% | 0% | 0% | 0% | 0% | 0% | 0% | 0% | 0% | 0% | 0% | 0% | 0% | 0% | 0% | 0% | 0% | 0% | 0% | 10% | pest or weed control at 250 g/ha [7]: 20%; plant injury at 15.625 g/ha [8]: 0%; plant injury at 62.5 g/ha [8]: 0%; plant injury at 250 g/ha [8]: 0%; pest or weed control at 15.625 g/ha [9]: 0%; pest or weed control at 62.5 g/ha [9]: 0%; pest or weed control at 250 g/ha [9]: 0%; pest or weed control at 15.625 g/ha [10]: 0%; pest or weed control at 62.5 g/ha [10]: 0%; pest or weed control at 250 g/ha [10]: 0%; pest or weed control at 15.625 g/ha [11]: 0%; pest or weed control at 62.5 g/ha [11]: 0%; pest or weed control at 250 g/ha [11]: 0%; pest or weed control at 15.625 g/ha [12]: 0%; pest or weed control at 62.5 g/ha [12]: 0%; pest or weed control at 250 g/ha [12]: 0% |
| CN1C[C@@H](c2ccc(C(F)(F)F)cc2)[C@H](C(=O)Nc2n[nH]c(C(F)(F)F)n2)C1=O (racemic) [Compound 1540] | 0% | 0% | 0% | 0% | 0% | 0% | 0% | 0% | 0% | 0% | 0% | 0% | 0% | 0% | 40% | 0% | 0% | 0% | 0% | 0% | pest or weed control at 250 g/ha [7]: 0%; plant injury at 15.625 g/ha [8]: 0%; plant injury at 62.5 g/ha [8]: 10%; plant injury at 250 g/ha [8]: 10%; pest or weed control at 15.625 g/ha [9]: 0%; pest or weed control at 62.5 g/ha [9]: 0%; pest or weed control at 250 g/ha [9]: 0%; pest or weed control at 15.625 g/ha [10]: 0%; pest or weed control at 62.5 g/ha [10]: 10%; pest or weed control at 250 g/ha [10]: 10%; pest or weed control at 15.625 g/ha [11]: 0%; pest or weed control at 62.5 g/ha [11]: 0%; pest or weed control at 250 g/ha [11]: 20%; pest or weed control at 15.625 g/ha [12]: 0%; pest or weed control at 62.5 g/ha [12]: 0%; pest or weed control at 250 g/ha [12]: 0% |
